Data reported in patent publication US20190183939A1, “CELL THERAPY USING MIDBRAIN-TYPE NEURAL STEM CELLS TREATED WITH VITAMIN C” (INDUSTRY-UNIVERSITY COOPERATION FOUNDATION HANYANG …, priority 2017, published 2019).

Assays:
Nurr1 and TH promoters = assay: DIP-qPCR and ChIP-qPCR on Nurr1 and TH promoters; type: cell-based, rat; settings: Quercetin 10 μM, 3 hours prior to VC treatment
Description: (§1) Foxa2 and Nurr1 binding sites were identified using the Jaspar database (http://jaspar.genereg.net/) using an 80% score threshold. Predicted Foxa2 and Nurr1 binding sites were coupled with phylogenetic footprinting to eliminate spurious predictions with specified position weight matrix (PWM) settings, as described in the following reference. [Sandelin, A., and Wasserman, W. W. (2004). Constrained binding site diversity within families of transcription factors enhances pattern discovery bioinformatics. Journal of molecular biology 338, 207-215] (Table 2). ChIP and DIP assays were carried out as described in the following reference. [Prolonged membrane depolarization enhances midbrain dopamine neuron differentiation via epigenetic histone modifications. Stem Cells 29, 1861-1873]. Briefly, chromatin or genomic DNA was sheared to an average of 200-500 bp in length using a sonication Bioruptor (BMS, Seoul, Korea) and immunoprecipitated using the antibodies listed in Table 1. Immunoprecipitated DNA fragments were collected using magnetic beads (Invitrogen), purified, and subjected to real-time PCR using the primers listed in Table 3. The comparative cycle threshold method was used to quantify the results. Data were normalized to the input DNA.

[1] = system: Foxa2 and Lmx1a promoters; assay: DIP-qPCR and ChIP-qPCR on Foxa2 and Lmx1a promoters; type: cell-based, rat; settings: Quercetin 10 μM, 3 hours prior to VC treatment
Description: as §1

O=c1c(O)c(-c2ccc(O)c(O)c2)oc2cc(O)cc(O)c12 [quercetin]
effect on VC-induced epigenetic changes on Nurr1 and Th promoter (Nurr1 and TH promoters): abolished
effect on VC-mediated changes to 5mC/5hmC and H3K27m3/H3K9m3 on Foxa2 and Lmx1a genes [1]: abolished
